The values below come from patent publication US6479460B1, “Synthetic peptides and pseudopeptides having osteogenic activity and pharmaceutical compositions containing the same” (Yissum Research Development Company of the Hebrew …, priority 1996, dated 2002).

Primed or numbered codes have the meaning given here. Where no end group is shown, it is not given here. [ ]: non-standard residue; d: D form. The star is where a group is joined. Desaminotyrosyl = O=C(CCc1ccc(O)cc1)*; Hydrocinnamoyl = O=C(CCc1ccccc1)*; NMeF = CN[C@@H](Cc1ccccc1)C(=O)O; ol″ = C-terminal alcohol; Propionyl = CCC(=O)*; GABA = NCCCC(=O)O; βAla = NCCC(=O)O

For test [1], the system named is fibroblastic NIH 3T3 cells. In words: Proliferation assay, fibroblastic NIH 3T3 cells. It is filed as cell-based. The note with it: analog concentration 10^−11M; mean cell number relative to positive control OGP(1-14) = 1.00. An excerpt: (§1) Some of the analogs were subjected to a dose response analysis.
For test [2], the system named is osteoblastic MC3T3 E1 cells. In words: Proliferation assay, osteoblastic MC3T3 E1 cells. Particulars: analog concentration 10^−13M; mean cell number relative to positive control OGP(1-14) = 1.00. The test is classed as cell-based.
Excerpt: as §1

Regarding (desamino[Phe^10]2OGP(10-14), the “Relative in vitro potency (95% confidence limit) NIH 3T3 cells” value in test [1] is reported as 0.24. Besides, the “Relative in vitro potency (95% confidence limit) MC3T3 E1 cells” value in test [2] turned out to be 0.18.
Nα-Ac—OGP(11-14) (Ac-GFGG): the “Relative in vitro potency (95% confidence limit) NIH 3T3 cells” value in test [1] stood at 0.22. In addition, the “Relative in vitro potency (95% confidence limit) MC3T3 E1 cells” value in test [2] stood at 0.21.
For OGP(11-14)-ol (GFGG-{ol″}) the same measures were 0.38 and 0.24.
With [Ala^10]OGP(10-14) (AGFGG), the “Relative in vitro potency (95% confidence limit) NIH 3T3 cells” value in test [1] is listed as 0.17. Besides, in test [2], the “Relative in vitro potency (95% confidence limit) MC3T3 E1 cells” value is 0.29.
Take [Ala^11]OGP(10-14) (YAFGG): the “Relative in vitro potency (95% confidence limit) NIH 3T3 cells” value in test [1] amounted to 0.31. Also, in test [2], the “Relative in vitro potency (95% confidence limit) MC3T3 E1 cells” value is listed as 0.18.
For [Ala^13]OGP(11-14) (GFAG) the same measures were 0.10 and 0.22.
[Ala^14]OGP(11-14) (GFGA): the “Relative in vitro potency (95% confidence limit) NIH 3T3 cells” value in test [1] stood at 0.10. Moreover, the “Relative in vitro potency (95% confidence limit) MC3T3 E1 cells” value in test [2] was found to be 0.17.
As for [D-Ala^10]OGP(10-14), in test [1], the “Relative in vitro potency (95% confidence limit) NIH 3T3 cells” value is recorded as 0.16. For the same substance, the “Relative in vitro potency (95% confidence limit) MC3T3 E1 cells” value in test [2] is 0.12.
Regarding [D-Ala^13]OGP(10-14), the “Relative in vitro potency (95% confidence limit) NIH 3T3 cells” value in test [1] is recorded as 0.26. The “Relative in vitro potency (95% confidence limit) MC3T3 E1 cells” value in test [2] is given as 0.14.
As to [Phe^10]OGP(10-14) (FGFGG), the “Relative in vitro potency (95% confidence limit) NIH 3T3 cells” value in test [1] worked out at 0.32. Also, the “Relative in vitro potency (95% confidence limit) MC3T3 E1 cells” value in test [2] was 0.41.
Turning to [β-Ala^11]OGP(10-14) (Y[βAla]FGG), in test [1], the “Relative in vitro potency (95% confidence limit) NIH 3T3 cells” value came to 0.17. Moreover, the “Relative in vitro potency (95% confidence limit) MC3T3 E1 cells” value in test [2] is reported as 0.29.
For “c(Gly-Tyr-Gly-Phe-Gly-Asp)-OH (GYGFGD-OH; lactam (positions not given here); also: cyclic, closure site not given here)”, the “Relative in vitro potency (95% confidence limit) NIH 3T3 cells” value in test [1] was found to be 0.16. Besides, the “Relative in vitro potency (95% confidence limit) MC3T3 E1 cells” value in test [2] is 0.15.
Turning to “c(Gly-Tyr-Gly-Phe-Gly-Gly) (GYGFGG; cyclic)”, the “Relative in vitro potency (95% confidence limit) NIH 3T3 cells” value in test [1] was determined as 0.20. Further, in test [2], the “Relative in vitro potency (95% confidence limit) MC3T3 E1 cells” value turned out to be 0.26.
For c(Tyr-Cly-Phe-Gly) (YGFG; cyclic), in test [1], the “Relative in vitro potency (95% confidence limit) NIH 3T3 cells” value is 0.43. For the same substance, in test [2], the “Relative in vitro potency (95% confidence limit) MC3T3 E1 cells” value amounted to 0.35.
Regarding “c(Tyr-Gly-Phe-Gly-Asp)-OH (YGFGD-OH; lactam (positions not given here); also: cyclic, closure site not given here)”, the “Relative in vitro potency (95% confidence limit) NIH 3T3 cells” value in test [1] is recorded as 0.11. Besides, the “Relative in vitro potency (95% confidence limit) MC3T3 E1 cells” value in test [2] is 0.14.
In the case of “c(β-Ala-Tyr-Gly-Phe-Gly-Gly) (cyclo([βAla]YGFGG); SMILES O=C1CNC(=O)CNC(=O)[C@H](Cc2ccccc2)NC(=O)CNC(=O)[C@H](Cc2ccc(O)cc2)NC(=O)CCN1)”, in test [1], the “Relative in vitro potency (95% confidence limit) NIH 3T3 cells” value is recorded as 0.37. Moreover, the “Relative in vitro potency (95% confidence limit) MC3T3 E1 cells” value in test [2] is reported as 0.36.
In the case of “c(γ-Abu-Tyr-Gly-Phe-Gly-Gly) (cyclo([GABA]YGFGG); SMILES O=C1CNC(=O)CNC(=O)[C@H](Cc2ccccc2)NC(=O)CNC(=O)[C@H](Cc2ccc(O)cc2)NC(=O)CCCN1)”, the “Relative in vitro potency (95% confidence limit) NIH 3T3 cells” value in test [1] was determined as 0.22. The “Relative in vitro potency (95% confidence limit) MC3T3 E1 cells” value in test [2] amounted to 0.20.
On to c(δ-Ala-Tyr-Gly-Phe-Gly-Asp)-OH, for which the “Relative in vitro potency (95% confidence limit) NIH 3T3 cells” value in test [1] is listed as 0.11. Moreover, the “Relative in vitro potency (95% confidence limit) MC3T3 E1 cells” value in test [2] stood at 0.20.
Take c(δ-Ala-Tyr-Gly-Phe-Gly-Gly): the “Relative in vitro potency (95% confidence limit) NIH 3T3 cells” value in test [1] is 0.18. Besides, the “Relative in vitro potency (95% confidence limit) MC3T3 E1 cells” value in test [2] is on record as 0.14.
On to des[Gly^11]OGP(10-14), for which the “Relative in vitro potency (95% confidence limit) NIH 3T3 cells” value in test [1] was 0.17. Also, the “Relative in vitro potency (95% confidence limit) MC3T3 E1 cells” value in test [2] is listed as 0.21.
Consider “desamino Tyr-CH2-Gly-Phe-Gly-Gly ([Desaminotyrosyl]GFGG; also: reduced amide bond Tyr-CH2-Gly) [desamino[Tyr^10ψ(CH2NH)Gly^11]OGP(10-14)]”, for which, in test [1], the “Relative in vitro potency (95% confidence limit) NIH 3T3 cells” value was determined as 0.79. Besides, in test [2], the “Relative in vitro potency (95% confidence limit) MC3T3 E1 cells” value stood at 0.81.
For the substance “desamino Tyr-Gly-N(CH3)-CH(CH2C6H5)-C(O)-Gly-Gly ([Desaminotyrosyl]G[NMeF]GG) [desamino[Tyr^10,N(Me)-Phe^12]OGP(10-14)]”, in test [1], the “Relative in vitro potency (95% confidence limit) NIH 3T3 cells” value came out at 0.67. Further, the “Relative in vitro potency (95% confidence limit) MC3T3 E1 cells” value in test [2] was found to be 0.52.
Take “desamino Tyr-Gly-NH-CH(CH2C6H5)-CH2-Gly-Gly ([Desaminotyrosyl]GFGG; also: reduced amide bond Phe-Gly (NH-CH(CH2C6H5)-CH2-NH))”: the “Relative in vitro potency (95% confidence limit) NIH 3T3 cells” value in test [1] is 0.88. For the same substance, the “Relative in vitro potency (95% confidence limit) MC3T3 E1 cells” value in test [2] amounted to 0.70.
In the same order, the values of “desamino Tyr-Gly-Phe-NH-CH2-CH2-CH2-CH2-C(O)-OH” are 0.188 and 0.78.
In the case of “desamino Tyr-Gly-Phe-NH-CH2-CH2-Gly (YGFGG; not fully specified; desamino Tyr10; reduced CH2NH bond Gly13-Gly14)”, the “Relative in vitro potency (95% confidence limit) NIH 3T3 cells” value in test [1] is 0.80. Besides, the “Relative in vitro potency (95% confidence limit) MC3T3 E1 cells” value in test [2] was determined as 0.78.
Turning to “desamino Tyr-NH-CH2-CH2-Phe-Gly-Gly ([Desaminotyrosyl]GFGG; also: Gly2-Phe3 bond reduced, ψ(CH2NH))”, the “Relative in vitro potency (95% confidence limit) NIH 3T3 cells” value in test [1] turned out to be 0.67. Further, in test [2], the “Relative in vitro potency (95% confidence limit) MC3T3 E1 cells” value is given as 0.61.
Turning to “desamino[Ala^10]OGP(10-14) ([Propionyl]GFGG)”, the “Relative in vitro potency (95% confidence limit) NIH 3T3 cells” value in test [1] was determined as 0.09. In addition, in test [2], the “Relative in vitro potency (95% confidence limit) MC3T3 E1 cells” value worked out at 0.28.
With “desamino[Phe^10]OGP(10-14) ([Hydrocinnamoyl]GFGG)”, the “Relative in vitro potency (95% confidence limit) NIH 3T3 cells” value in test [1] is listed as 0.48. The “Relative in vitro potency (95% confidence limit) MC3T3 E1 cells” value in test [2] amounted to 0.35.
As to “desamino[Tyr^10,Ala^12]OGP(10-14) [desamino[Tyr^10,Ala^12]OGP(10-14) (SEQ ID NO: 20)]”, in test [1], the “Relative in vitro potency (95% confidence limit) NIH 3T3 cells” value is on record as 0.43. Further, the “Relative in vitro potency (95% confidence limit) MC3T3 E1 cells” value in test [2] stood at 0.41.
Regarding “desamino[Tyr^10,Ala^12]OGP(10-14) [desamino[Tyr^10,Ala^12]OGP(10-14) (SEQ ID NO: 21)] ([Desaminotyrosyl]GAGG)”, the “Relative in vitro potency (95% confidence limit) NIH 3T3 cells” value in test [1] was found to be 0.16. For the same substance, the “Relative in vitro potency (95% confidence limit) MC3T3 E1 cells” value in test [2] amounted to 0.21.
Regarding “desamino[Tyr^10,Ala^13]OGP(10-14) ([Desaminotyrosyl]GFAG)”, the “Relative in vitro potency (95% confidence limit) NIH 3T3 cells” value in test [1] is reported as 0.15. Moreover, the “Relative in vitro potency (95% confidence limit) MC3T3 E1 cells” value in test [2] was 0.27.
For the substance “desamino[Tyr^10,Ala^14]OGP(10-14) ([Desaminotyrosyl]GFGA)”, the “Relative in vitro potency (95% confidence limit) NIH 3T3 cells” value in test [1] was 0.16. The “Relative in vitro potency (95% confidence limit) MC3T3 E1 cells” value in test [2] came out at 0.19.
Regarding desamino[Tyr^10,D-Ala^11]OGP(10-14), the “Relative in vitro potency (95% confidence limit) NIH 3T3 cells” value in test [1] was 0.19. In test [2], the “Relative in vitro potency (95% confidence limit) MC3T3 E1 cells” value turned out to be 0.21.
